Test results taken from patent publication US20060134119A1, “Drugs containing galectin 9” (priority 2003, published 2006).

How the values were obtained:
[1] = test system: malignant melanoma cell line MM-RU; experiment: Apoptosis analysis by PI method in malignant melanoma cell line MM-RU; assay type: cell-based, human; conditions: incubated with galectin-9 for 72 hr, FIG. 10
Experimental: (§1) Apoptotic activity was measured by the PI method. When cells are incubated with galectin-9, washed, then subjected to alcohol-fixation, and fragmented DNAs flow out of the cell. Subsequently, incubation with PI leads to a reduction in the fluorescence intensity of apoptotic cells. Apoptosis was examined by the percentage of the cells wherein their fluorescence intensity was reduced. […] This induction was at the same level as H2O2 (hydrogen peroxide solution) that was used as a positive control. In addition, the same results were obtained by another method for examining apoptosis, TUNEL assay.

HMC-1 = experiment: Apoptosis analysis by PI method in HMC-1 cells; assay type: cell-based; conditions: incubation with galectin-9 at least 48 hr or more
Experimental: as §1

Jurkat = experiment: Apoptosis analysis by PI method in Jurkat cells; assay type: cell-based
Experimental: (§2) MOLT-4 (T cell), Jurkat (T cell), BALL-1 (B cell), THP-1 (acute monocytic leukemia derived cell), and HL60 (acute promyelotic leukemia derived cell) cells were obtained from American Type Culture Collection (ATCC). All the cell lines were maintained in an RPMI-1640 medium (Sigma, St. Louis, US) supplemented with 10% FCS in 5% Co2 at 37° C. Lactose (30 mM) was added to the culture medium to inhibit Gal-9 activity. The same concentration of sucrose was used as a control.
(§3) Cells that underwent apoptosis induction were centrifuged at 4° C. for 5 min at 1,000 rpm, and the cell pellet was resuspended in PBS (300 μL), and adjusted to a final concentration of 70% by gradually adding 100% cold ethanol (700 μL) to the suspended cells with vortexing. […] Stained cells were analyzed by flow cytometry (Sandstrom, K. et al., J Immunol Methods, 240: 55 (2000) and Zhang L. et al., Cancer Lett, 142: 129 (1999)) after removing aggregated cells through a nylon mesh and increasing the cell volume with PBS. […]
(§4) Apoptotic activity was measured by the PI method. […] Subsequently, incubation with PI leads to a reduction in the fluorescence intensity of apoptotic cells. Apoptosis was examined by the percentage of the cells wherein their fluorescence intensity was reduced. […]

KATO-III = experiment: Apoptosis analysis by PI method in KATO-III cells; assay type: cell-based; conditions: incubation with galectin-9 at least 48 hr or more
Experimental: as §1

MCF-7 = experiment: Apoptosis analysis by PI method in MCF-7 cells; assay type: cell-based; conditions: incubation with galectin-9 at least 48 hr or more
Experimental: as §1

HL-60 = experiment: Apoptosis analysis by PI method in HL60 cells; assay type: cell-based
Experimental: as §2, §3, §4

Daudi = experiment: Apoptosis analysis by PI method in Daudi cells; assay type: cell-based; conditions: incubation with galectin-9 at least 48 hr or more
Experimental: as §1

## Galectin-9: Recombinant human galectin-9 expressed in E. coli and purified on lactose-agarose
[1]
  apoptosis induction: strongly induced
HMC-1
  apoptosis induction, Gal9 (+): 26.2
Jurkat; Jurkat, incubation with galectin-9 at least 48 hr or more
  apoptosis induction, Gal9 (+): 66.6
Jurkat; rGal-9 1 μM, 24 hr, FIG. 3
  apoptosis induction: induced
KATO-III
  apoptosis induction, Gal9 (+): 30.5
MCF-7
  apoptosis induction, Gal9 (+): 14.1
HL-60; HL-60, incubation with galectin-9 at least 48 hr or more
  apoptosis induction, Gal9 (+): 64.6
HL-60; rGal-9 1 μM, 24 hr, FIG. 3
  apoptosis induction: induced
Daudi
  apoptosis induction, Gal9 (+): 58.5
